≈ marks a conversion by molar mass, not a printed value. Like-named read-outs stand apart in the source and are kept apart here.
Tests used:
[1] = test system: E coli carrying specific resistance determinants; test: MIC by broth microdilution, E coli carrying specific resistance determinants; assay type: cell-based; details: Escherichia coli
E coli wild type = test: MIC by broth microdilution, wild type E coli; assay type: cell-based; details: Escherichia coli
MRSA = test: MIC by broth microdilution, MRSA isolates; assay type: cell-based; details: for MIC50 / MIC: Staphylococcus aureus, MRSA
[2] = test system: wild type bacterial ribosomes; test: in-vitro translation assay, bacterial ribosomes; assay type: biochemical
Text: The antiribosomal activity of these compounds was investigated with cell-free translation assays using both wild type bacterial ribosomes and hybrid ribosomes carrying eukaryotic decoding A sites enabling the prediction of selectivity.

N. gonorrhoeae = test: Disk diffusion, N. gonorrhoeae; assay type: cell-based; details: Neisseria gonorrhoeae
[3] = test system: Enterobacter cloacae AG290; test: MIC by broth microdilution, Enterobacter cloacae; assay type: cell-based; details: strain AG290 Enterobacter cloacae; read-out: MIC AG290 E. cloacae
[4] = test system: Klebsiella pneumonia AG215; test: MIC by broth microdilution, Klebsiella pneumonia; assay type: cell-based; details: Klebsiella pneumoniae; strain AG215 Klebsiella pneumonia; read-out: MIC AG215 K. pneumon
[5] = test system: Acinetobacter baumannii pittii AG225; test: MIC by broth microdilution, Acinetobacter baumannii; assay type: cell-based; details: strain AG225 Acinetobacter baumannii pittii

NC[C@@H]1O[C@H](O[C@H]2[C@@H](O)[C@H](O[C@@H]3[C@@H](O)[C@H](N)C[C@H](N)[C@H]3O[C@H]3O[C@H](CO)[C@@H](O)[C@H](O)[C@H]3N)O[C@@H]2CO)[C@H](N)[C@@H](O)[C@@H]1O [paromomycin, reference compound]
MIC ([1]; read-out: MIC E coli AG182 AAC(3)-IV APH(3′)-Ia): > 128 µg/mL | MIC ([1]; read-out: MIC E. coli AAC(2′) AG106): > 64 µg/mL | MIC ([1]; read-out: MIC E. coli AAC(2′) pH434): > 64 µg/mL | MIC ([1]; read-out: MIC E. coli AG106 AAC(2′)-Ia): > 64 µg/mL | MIC ([1]; read-out: MIC E. coli pGB2armA armA): 2 µg/mL (≈ 3.25 µM) | MIC ([1]; read-out: MIC E. coli pH434 AAC(2′)-Ib): > 64 µg/mL | MIC ([1]; read-out: MIC pH414 AAC(6′)-I): 2 µg/mL (≈ 3.25 µM) | MIC ([1]; read-out: MIC pH415 AAC(6′)-II): 2 to 4 µg/mL (≈ 3.25 to 6.5 µM) | MIC ([1]; read-out: MIC pH421 APH(3)-I): > 128 µg/mL | MIC ([1]; read-out: MIC pH421 E. coli APH(3′)-I): > 128 µg/mL | MIC ([1]; read-out: MIC pH422 APH(3′)-II): > 128 µg/mL | MIC ([1]; read-out: MIC pH422 E. coli APH(3′)-II): > 128 µg/mL | MIC ([1]; read-out: MIC pH423 APH(3′)-VI): > 128 µg/mL | MIC ([1]; read-out: MIC pH423 E. coli APH(3′)-VI): > 128 µg/mL | MIC ([1]; read-out: MIC pH432 ANT(4′)): 1 to 2 µg/mL (≈ 1.62 to 3.25 µM) | MIC (E coli wild type; AG006 wt, Table 2 (Example 1), read-out: MIC E coli AG006 wt): 1 to 2 µg/mL (≈ 1.62 to 3.25 µM) | MIC (E coli wild type; AG102 wt, Table 2 (Example 1), read-out: MIC E coli AG102 wt): 1 µg/mL (≈ 1.62 µM) | MIC (E coli wild type; AG160 wt, Table 2 (Example 1), read-out: MIC E coli AG160 wt): 2 to 4 µg/mL (≈ 3.25 to 6.5 µM) | MIC (E coli wild type; ATCC25922, strain AG212 E. coli (ATCC25922), read-out: MIC AG212 E. coli): 2 to 4 µg/mL (≈ 3.25 to 6.5 µM) | MIC50 (E coli wild type; BM13 (AG06) wt, Table 2A (Example 2), read-out: MIC50 E coli BM13 (AG06) wt): 2 to 4 µg/mL (≈ 3.25 to 6.5 µM) | MIC (E coli wild type; E. coli strain pH430, WT, read-out: MIC pH430 WT): 1 to 2 µg/mL (≈ 1.62 to 3.25 µM) | MIC (E coli wild type; WT, Table 3 (Example 1), read-out: MIC WT): 1 to 2 µg/mL (≈ 1.62 to 3.25 µM) | MIC (E coli wild type; WT, Table 3 (Example 2), read-out: MIC WT): 1 to 2 µg/mL (≈ 1.62 to 3.25 µM) | MIC (E coli wild type; WT, Table 4 (Example 3), read-out: MIC E. coli WT): 1 to 2 µg/mL (≈ 1.62 to 3.25 µM) | MIC (E coli wild type; WT, Table 5 (Example 3), read-out: MIC E. coli WT): 1 to 2 µg/mL (≈ 1.62 to 3.25 µM) | MIC (E coli wild type; clinical isolate AG001, WT, read-out: MIC AG001 E. coli WT): 2 µg/mL (≈ 3.25 µM) | MIC (E coli wild type; clinical isolate AG001, Table 1 (Example 3), read-out: MIC E coli AG001): 16 to 32 µg/mL (≈ 26 to 52 µM) | MIC (E coli wild type; clinical isolate AG003, Table 1 (Example 3), read-out: MIC E coli AG003): 8 to 16 µg/mL (≈ 13 to 26 µM) | MIC (E coli wild type; clinical isolate AG055, WT, read-out: MIC AG055 E. coli WT): 2 µg/mL (≈ 3.25 µM) | MIC (E coli wild type; clinical isolate AG055, Table 1 (Example 3), read-out: MIC E coli AG055): 8 µg/mL (≈ 13 µM) | MIC (E coli wild type; clinical isolate AG160 WT, Table 2 (Example 4), read-out: MIC AG160 E. coli WT): 2 to 4 µg/mL (≈ 3.25 to 6.5 µM) | MIC (E coli wild type; engineered strain pH430 WT, Table 2 (Example 4), read-out: MIC pH430 E. coli WT): 1 to 2 µg/mL (≈ 1.62 to 3.25 µM) | MIC50 (E coli wild type; read-out: MIC50 E coli pH430 WT): 1 to 2 µg/mL (≈ 1.62 to 3.25 µM) | MIC (E coli wild type; read-out: MIC E coli AG006 Wild type, AG006 Wild type, Table 2 (Example 3)): 2 µg/mL (≈ 3.25 µM) | MIC (E coli wild type; read-out: MIC E coli AG104 Wild type, AG104 Wild type, Table 2 (Example 3)): 2 µg/mL (≈ 3.25 µM) | MIC50 (E coli wild type; strain AG01, Table 1 (Example 1), read-out: MIC50 E coli AG01): 2 to 4 µg/mL (≈ 3.25 to 6.5 µM) | MIC50 (E coli wild type; strain AG01, Table 1 (Example 2), read-out: MIC50 E coli AG01): 2 to 4 µg/mL (≈ 3.25 to 6.5 µM) | MIC50 (E coli wild type; strain AG03, Table 1 (Example 1), read-out: MIC50 E coli AG03): 4 µg/mL (≈ 6.5 µM) | MIC50 (E coli wild type; strain AG03, Table 1 (Example 2), read-out: MIC50 E coli AG03): 4 µg/mL (≈ 6.5 µM) | MIC50 (E coli wild type; strain AG55, Table 1 (Example 1), read-out: MIC50 E coli AG55): 2 to 4 µg/mL (≈ 3.25 to 6.5 µM) | MIC50 (E coli wild type; strain AG55, Table 1 (Example 2), read-out: MIC50 E coli AG55): 2 to 4 µg/mL (≈ 3.25 to 6.5 µM) | MIC50 (MRSA; read-out: MIC50 MRSA AG39): > 256 µg/mL | MIC50 (MRSA; read-out: MIC50 MRSA AG42): > 256 µg/mL | MIC (MRSA; read-out: MIC AG039 MRSA AAC(6′)-I ANT(4′)-I): > 256 µg/mL | MIC (MRSA; read-out: MIC AG042 MRSA AAC(6′)-I ANT(4′)-I APH(2′)): > 256 µg/mL | MIC (MRSA; read-out: MIC MRSA AG039): > 256 µg/mL | MIC (MRSA; read-out: MIC MRSA AG042): > 256 µg/mL | MIC50 (MRSA; strain AG38, Table 1 (Example 1), read-out: MIC50 MRSA AG38): 4 µg/mL (≈ 6.5 µM) | MIC50 (MRSA; strain AG38, Table 1 (Example 2), read-out: MIC50 MRSA AG38): 4 µg/mL (≈ 6.5 µM) | MIC50 (MRSA; strain AG44, Table 1 (Example 1), read-out: MIC50 MRSA AG44): 4 to 8 µg/mL (≈ 6.5 to 13 µM) | MIC50 (MRSA; strain AG44, Table 1 (Example 2), read-out: MIC50 MRSA AG44): 4 to 8 µg/mL (≈ 6.5 to 13 µM) | MIC (MRSA; clinical isolate AG038, Table 1 (Example 3), read-out: MIC MRSA AG038): 4 µg/mL (≈ 6.5 µM) | MIC (MRSA; clinical isolate AG038, read-out: MIC AG038 MRSA): 4 µg/mL (≈ 6.5 µM) | MIC (MRSA; clinical isolate AG044, Table 1 (Example 3), read-out: MIC MRSA AG044): 4 to 8 µg/mL (≈ 6.5 to 13 µM) | MIC (MRSA; clinical isolate AG044, read-out: MIC AG044 MRSA): 4 to 8 µg/mL (≈ 6.5 to 13 µM) | MIC50 MRSA AG39 (MRSA; strain AG39, Table 1 (Example 2)): >256 µg/mL | MIC50 MRSA AG42 (MRSA; strain AG42, Table 1 (Example 2)): >256 µg/mL | IC50 ([2]; Mycobacterium smegmatis ribosomes, read-out: IC50 Bacterial): 0.04 µM | IC50 ([2]; bacterial ribosome, Table 3 (Example 1), read-out: IC50 Bac): 0.04 µM | IC50 ([2]; bacterial ribosome, Table 3 (Example 2), read-out: IC50 Bac): 0.04 µM | IC50 ([2]; bacterial ribosome, Table 4 (Example 3), read-out: IC50 Bac): 0.04 µM | zone of inhibition at 25 nmol/disc (N. gonorrhoeae): 9 mm | MIC [3]: 2 µg/mL (≈ 3.25 µM) | MIC [4]: 1 µg/mL (≈ 1.62 µM) | MIC [5]: 2 µg/mL (≈ 3.25 µM)
